Assay results from patent publication US20060257463A1, “Transmucosal delivery of cannabinoids” (UNIVERSITY OF MISSISSIPPI, priority 2002, published 2006).
Where two headings read alike, the source gives them in different places.

Key:
[1] = Drug recovery after hot-melt processing into transmucosal preparations; assay type: physicochemical; details: after processing the drug into TMP systems
Experimental: The formulas are listed below. The PEO, PVP and Vitamin E TPGS were dry blended in a V-blender. The THC and the THC-HS were solubilized in the PEG 400 and immediately sprayed into the dry blend with continuous mixing. The resulting blend was then hot-melt extruded into films. The highest extrusion temperature was 150° C. and residence time in the barrel was approximately 2 minutes. The resulting transmucosal preparations were approximately 1.0 mm in thickness and both contained over 98% of the original theoretical percent of drug within the formulation.
It has been reported that THC is very unstable at room temperature and its primary degradant is cannabinol (CBN). It has also been reported that THC instability is accelerated by ultraviolet light and heat.

[2] = Klucel matrix film, cited from earlier work
[3] = Solubility in polyethylene glycol 400; details: PEG 400
[4] = Diffusion study of transmucosal films in modified Franz cells; details: rabbit mucosa; Brij 3.0% buffer pH 7.2; FIG. 1
Experimental: Diffusion studies of the transmucosal preparation films in Examples #5 and #6 were performed using a PermeGear, Model V9, 9 Cell System. Modified Franz cells were employed using thinly-excised rabbit mucosa as the diffusion membrane. Diffusion media was a diffusion buffer system of Brij® 3.0% (pH=7.2) which was determined by previous testing.

Molecule | THC recovered after processing into THC transmucosal matrix patch systems [1] | THC degradation within the hot-mold matrix ([2]; processed at 120° C. for 20 minutes) [%] | THC degradation within the hot-mold matrix ([2]; processed at 160° C. for 20 minutes) [%] | THC degradation within the hot-mold matrix ([2]; processed at 200° C. for 20 minutes) [%] | solubility in polyethylene glycol 400 [3] [%] | duration of controlled diffusion [4] | release behaviour [4]
CCCCCc1cc(O)c2c(c1)OC(C)(C)[C@@H]1CCC(C)=C[C@@H]21 [THC, Tetrahydrocannabinol] | over 98% | 1.8 | 2.3 | 4.3 | > 20 |  | 
Tetrahydrocannabinol Hemisuccinate [THC-HS] |  |  |  |  |  | over 22 hours | more immediate release
